Test results published in ChEMBL document CHEMBL3046559, “Sterile oat (Avena sterilis L.) cross-resistance profile to ACCase-inhibiting herbicides in Greece” (2012).

Tests used:
Type in all cases: functional
Avena sterilis [1] = experiment: Resistance index, ratio of GR50 for Avena sterilis accession P08 to GR50 for Avena sterilis accession P10S
Avena sterilis [2] = experiment: Resistance index, ratio of GR50 for Avena sterilis accession P05 to GR50 for Avena sterilis accession P10S
Avena sterilis [3] = experiment: Resistance index, ratio of GR50 for Avena sterilis accession P20 to GR50 for Avena sterilis accession P10S
Avena sterilis [4] = experiment: Resistance index, ratio of GR50 for Avena sterilis accession P13S to GR50 for Avena sterilis accession P10S
Avena sterilis [5] = experiment: Resistance index, ratio of GR50 for Avena sterilis accession P11 to GR50 for Avena sterilis accession P10S
Avena sterilis [6] = experiment: Resistance index, ratio of GR50 for Avena sterilis accession P18 to GR50 for Avena sterilis accession P10S
Avena sterilis [7] = experiment: Resistance index, ratio of GR50 for Avena sterilis accession P15 to GR50 for Avena sterilis accession P10S
Avena sterilis [8] = experiment: Resistance index, ratio of GR50 for Avena sterilis accession P22 to GR50 for Avena sterilis accession P10S
Avena sterilis [9] = experiment: Resistance index, ratio of GR50 for Avena sterilis accession P09 to GR50 for Avena sterilis accession P10S
Avena sterilis [10] = experiment: Herbicidal activity against Avena sterilis accession P01 assessed as weed survival at 16 times field recommended herbicide dose
Avena sterilis [11] = experiment: Resistance index, ratio of GR50 for Avena sterilis accession P12 to GR50 for Avena sterilis accession P10S
Avena sterilis [12] = experiment: Resistance index, ratio of GR50 for Avena sterilis accession P01 to GR50 for Avena sterilis accession P10S
Avena sterilis [13] = experiment: Herbicidal activity against Avena sterilis accession P22 assessed as weed survival at 16 times field recommended herbicide dose
Avena sterilis [14] = experiment: Resistance index, ratio of GR50 for Avena sterilis accession P17 to GR50 for Avena sterilis accession P10S
Avena sterilis [15] = experiment: Resistance index, ratio of GR50 for Avena sterilis accession P16 to GR50 for Avena sterilis accession P10S
Avena sterilis [16] = experiment: Resistance index, ratio of GR50 for Avena sterilis accession P06S to GR50 for Avena sterilis accession P10S
Avena sterilis [17] = experiment: Resistance index, ratio of GR50 for Avena sterilis accession P19S to GR50 for Avena sterilis accession P10S
Avena sterilis [18] = experiment: Herbicidal activity against Avena sterilis accession P09 assessed as weed survival at 32 times field recommended herbicide dose
Avena sterilis [19] = experiment: Resistance index, ratio of GR50 for Avena sterilis accession P03 to GR50 for Avena sterilis accession P10S
Avena sterilis [20] = experiment: Herbicidal activity against Avena sterilis accession P15 assessed as induction of weed mortality
Avena sterilis [21] = experiment: Resistance index, ratio of GR50 for Avena sterilis accession P14 to GR50 for Avena sterilis accession P10S
Avena sterilis [22] = experiment: Herbicidal activity against Avena sterilis accession P14 assessed as weed survival at 32 times field recommended herbicide dose
Avena sterilis [23] = experiment: Resistance index, ratio of GR50 for Avena sterilis accession P21S to GR50 for Avena sterilis accession P10S
Avena sterilis [24] = experiment: Resistance index, ratio of GR50 for Avena sterilis accession P02 to GR50 for Avena sterilis accession P10S
Avena sterilis [25] = experiment: Resistance index, ratio of GR50 for Avena sterilis accession P04 to GR50 for Avena sterilis accession P10S
Avena sterilis [26] = experiment: Resistance index, ratio of GR50 for Avena sterilis accession P07 to GR50 for Avena sterilis accession P10S

Compound: C#CCOC(=O)[C@@H](C)Oc1ccc(Oc2ncc(Cl)cc2F)cc1 [CLODINAFOP PROPARGYL]
- Ratio (Avena sterilis [1]): >164
- Ratio (Avena sterilis [2]): 22
- Ratio (Avena sterilis [3]): 63
- Ratio (Avena sterilis [4]): 0.6
- Ratio (Avena sterilis [5]): >164
- Ratio (Avena sterilis [6]): 64
- Ratio (Avena sterilis [7]): >164
- Ratio (Avena sterilis [8]): 15
- Ratio (Avena sterilis [9]): 6
- Survival (Avena sterilis [10]): 70%
- Ratio (Avena sterilis [11]): >164
- Ratio (Avena sterilis [12]): 130
- Survival (Avena sterilis [13]): 0%
- Ratio (Avena sterilis [14]): 35
- Ratio (Avena sterilis [15]): 21
- Ratio (Avena sterilis [16]): 1.1
- Ratio (Avena sterilis [17]): 3.6
- Survival (Avena sterilis [18]): 0%
- Ratio (Avena sterilis [19]): >164
- GR50 (Avena sterilis [20]): >1312 gAi/ha
- Ratio (Avena sterilis [21]): 150
- Survival (Avena sterilis [22]): 43%
- Ratio (Avena sterilis [23]): 1.4
- Ratio (Avena sterilis [24]): >164
- Ratio (Avena sterilis [25]): >164

Compound: COC(=O)C(C)Oc1ccc(Oc2ccc(Cl)cc2Cl)cc1 (stereo not drawn) [DICLOFOP-METHYL]
- Ratio (Avena sterilis [1]): 22
- Ratio (Avena sterilis [2]): 10
- Ratio (Avena sterilis [3]): >50
- Ratio (Avena sterilis [26]): 7
- Ratio (Avena sterilis [4]): 1
- Ratio (Avena sterilis [5]): >50
- Ratio (Avena sterilis [6]): 20
- Ratio (Avena sterilis [7]): >50
- Ratio (Avena sterilis [8]): 8
- Ratio (Avena sterilis [9]): 28
- Survival (Avena sterilis [10]): 60%
- Ratio (Avena sterilis [11]): >50
- Ratio (Avena sterilis [12]): 43
- Survival (Avena sterilis [13]): 27%
- Ratio (Avena sterilis [14]): 17
- Ratio (Avena sterilis [15]): 11
- Ratio (Avena sterilis [16]): 1.1
- Ratio (Avena sterilis [17]): 0.9
- Survival (Avena sterilis [18]): 40%
- Ratio (Avena sterilis [19]): 26
- GR50 (Avena sterilis [20]): >22740 gAi/ha
- Ratio (Avena sterilis [21]): 22
- Survival (Avena sterilis [22]): 37%
- Ratio (Avena sterilis [23]): 0.8
- Ratio (Avena sterilis [24]): >50
- Ratio (Avena sterilis [25]): 28

Compound: CCOC(=O)[C@@H](C)Oc1ccc(Oc2nc3ccc(Cl)cc3o2)cc1 [FENOXAPROP-P-ETHYL]
- Ratio (Avena sterilis [1]): 55
- Ratio (Avena sterilis [2]): 12
- Ratio (Avena sterilis [3]): >165
- Ratio (Avena sterilis [26]): >165
- Ratio (Avena sterilis [4]): 1.1
- Ratio (Avena sterilis [5]): 145
- Ratio (Avena sterilis [6]): >165
- Ratio (Avena sterilis [7]): 92
- Ratio (Avena sterilis [8]): 16
- Ratio (Avena sterilis [9]): 136
- Survival (Avena sterilis [10]): 23%
- Ratio (Avena sterilis [11]): 83
- Ratio (Avena sterilis [12]): 38
- Survival (Avena sterilis [13]): 0%
- Ratio (Avena sterilis [14]): 19
- Ratio (Avena sterilis [15]): 32
- Ratio (Avena sterilis [16]): 1.1
- Ratio (Avena sterilis [17]): 1.9
- Survival (Avena sterilis [18]): 40%
- Ratio (Avena sterilis [19]): 55
- GR50 (Avena sterilis [20]): 1440 gAi/ha
- Ratio (Avena sterilis [21]): 10
- Survival (Avena sterilis [22]): 0%
- Ratio (Avena sterilis [23]): 1.2
- Ratio (Avena sterilis [24]): 133
- Ratio (Avena sterilis [25]): 59

Compound: COCc1cnc(C2=NC(C)(C(C)C)C(=O)N2)c(C(=O)O)c1 (stereo not drawn) [IMAZAMOX]
- Survival (Avena sterilis [10]): 0%
- Survival (Avena sterilis [13]): 0%
- Survival (Avena sterilis [18]): 0%
- GR50 (Avena sterilis [20]): <50 gAi/ha
- Survival (Avena sterilis [22]): 0%

Compound: CCc1cc(C)cc(CC)c1-c1c(OC(=O)C(C)(C)C)n2n(c1=O)CCOCC2 [PINOXADEN]
- Ratio (Avena sterilis [3]): 10
- Ratio (Avena sterilis [4]): 1
- Survival (Avena sterilis [10]): 0%
- Survival (Avena sterilis [13]): 0%
- Ratio (Avena sterilis [16]): 0.9
- Ratio (Avena sterilis [17]): 1.6
- Survival (Avena sterilis [18]): 0%
- GR50 (Avena sterilis [20]): <40 gAi/ha
- Survival (Avena sterilis [22]): 0%
- Ratio (Avena sterilis [23]): 1.4
- Ratio (Avena sterilis [25]): 18

Compound: CCO/N=C(\CC)C1=C(O)CC(c2c(C)cc(C)cc2C)CC1=O (stereo not drawn) [TRALKOXYDIM]
- Ratio (Avena sterilis [1]): 27
- Ratio (Avena sterilis [3]): 102
- Ratio (Avena sterilis [4]): 1
- Ratio (Avena sterilis [7]): 26
- Ratio (Avena sterilis [8]): 15
- Ratio (Avena sterilis [9]): 19
- Survival (Avena sterilis [10]): 0%
- Ratio (Avena sterilis [12]): 27
- Survival (Avena sterilis [13]): 20%
- Ratio (Avena sterilis [14]): 14
- Ratio (Avena sterilis [15]): 32
- Ratio (Avena sterilis [16]): 1
- Ratio (Avena sterilis [17]): 0.4
- Survival (Avena sterilis [18]): 0%
- Ratio (Avena sterilis [19]): 55
- GR50 (Avena sterilis [20]): 735 gAi/ha
- Survival (Avena sterilis [22]): 0%
- Ratio (Avena sterilis [23]): 3
- Ratio (Avena sterilis [24]): 38
- Ratio (Avena sterilis [25]): 266
